Measured values: ChEMBL document CHEMBL1201862, “PubChem BioAssay data set” (2004)
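Tested at 5 concentrations; 48 h exposure; 96-well plates; endpoints linearly interpolated, else capped at highest concentration. GI50 marks 50% less growth.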 Active and inactive are the calls of the source. Rule as the data show it: active = GI50 up to about 1.1 µM and inactive = higher.

Assays:
Test in all cases: DTP human tumour cell line panel, 48 h
786-0 = system: 786-0
A498 = system: A498
A549 = system: A549
ACHN = system: ACHN
CAKI-1 = system: CAKI-1
COLO 205 = system: COLO 205
DU-145 = system: DU-145
EKVX = system: EKVX
HCC 2998 = system: HCC 2998
HCT-116 = system: HCT-116
HCT-15 = system: HCT-15
HL-60 = system: HL-60
HOP-62 = system: HOP-62
HOP-92 = system: HOP-92
HT-29 = system: HT-29
Hs-578T = system: Hs-578T
IGROV-1 = system: IGROV-1
K562 = system: K562
KM12 = system: KM12
LOX IMVI = system: LOX IMVI
M14 = system: M14
MCF7 = system: MCF7
MDA-MB-231 = system: MDA-MB-231
MDA-MB-435 = system: MDA-MB-435
MDA-N = system: MDA-N
MOLT-4 = system: MOLT-4
Malme-3M = system: Malme-3M
NCI-H226 = system: NCI-H226
NCI-H23 = system: NCI-H23
NCI-H460 = system: NCI-H460
NCI/ADR-RES = system: NCI/ADR-RES
OVCAR-3 = system: OVCAR-3
OVCAR-4 = system: OVCAR-4
OVCAR-5 = system: OVCAR-5
OVCAR-8 = system: OVCAR-8
PC-3 = system: PC-3
RPMI-8226 = system: RPMI-8226
RXF 393 = system: RXF 393
SF-268 = system: SF-268
SF-295 = system: SF-295
SF-539 = system: SF-539
SK-MEL-28 = system: SK-MEL-28
SK-MEL-2 = system: SK-MEL-2
SK-OV-3 = system: SK-OV-3
SN12C = system: SN12C
SNB-19 = system: SNB-19
SNB-75 = system: SNB-75
SR = system: SR
SW-620 = system: SW-620
T47D = system: T47D
TK-10 = system: TK-10
U-251 = system: U-251
UACC-257 = system: UACC-257
UACC-62 = system: UACC-62
UO-31 = system: UO-31
CCRF-CEM = system: CCRF-CEM
NCI-H522 = system: NCI-H522
SK-MEL-5 = system: SK-MEL-5

With `S=C(Cc1ccc2c(c1)Sc1ccccc1O2)N1CCOCC1` the GI50 (786-0) was 56.9 µM (inactive), the GI50 (A498) was 50.6 µM (inactive) and the GI50 (A549) was 35.7 µM (inactive). The GI50 (ACHN) was 38.7 µM (inactive), the GI50 (CAKI-1) was 38.9 µM (inactive) and the GI50 (COLO 205) was 36.6 µM (inactive). For the same molecule, the GI50 (DU-145) was > 100 µM (inactive), the GI50 (EKVX) was 30.3 µM (inactive) and the GI50 (HCC 2998) was 86.1 µM (inactive). For the same molecule, the GI50 (HCT-116) was 8.32 µM (inactive), the GI50 (HCT-15) was 41.9 µM and the GI50 (HL-60) was 16 µM (inactive). The GI50 (HOP-62) was > 100 µM (inactive), the GI50 (HOP-92) was 30.6 µM (inactive) and the GI50 (HT-29) was 24.6 µM (inactive). For the same molecule, the GI50 (Hs-578T) was 21.1 µM (inactive), the GI50 (IGROV-1) was 33.7 µM (inactive) and the GI50 (K562) was > 100 µM (inactive). For the same molecule, the GI50 (KM12) was 29 µM (inactive), the GI50 (LOX IMVI) was 45.4 µM (inactive) and the GI50 (M14) was 40.6 µM (inactive). For the same molecule, the GI50 (MCF7) was 36.7 µM (inactive), the GI50 (MDA-MB-231) was 58.7 µM (inactive) and the GI50 (MDA-MB-435) was 29.4 µM (inactive). The GI50 (MDA-N) was 42.7 µM (inactive), the GI50 (MOLT-4) was 52.1 µM (inactive) and the GI50 (Malme-3M) was 23.8 µM (inactive). For the same molecule, the GI50 (NCI-H226) was 28.8 µM (inactive), the GI50 (NCI-H23) was 46.2 µM (inactive) and the GI50 (NCI-H460) was 23.5 µM (inactive). The GI50 (NCI/ADR-RES) was 24.8 µM (inactive), the GI50 (OVCAR-3) was 49.5 µM (inactive) and the GI50 (OVCAR-4) was > 100 µM (inactive). For the same molecule, the GI50 (OVCAR-5) was > 100 µM (inactive), the GI50 (OVCAR-8) was 30.5 µM (inactive) and the GI50 (PC-3) was 28.3 µM (inactive). The GI50 (RPMI-8226) was 34.8 µM (inactive), the GI50 (RXF 393) was 69.8 µM (inactive) and the GI50 (SF-268) was 32.6 µM (inactive). The GI50 (SF-295) was 22.6 µM (inactive), the GI50 (SF-539) was 21.2 µM (inactive) and the GI50 (SK-MEL-28) was 59.7 µM (inactive). For the same molecule, the GI50 (SK-MEL-2) was 66.7 µM (inactive), the GI50 (SK-OV-3) was 49.9 µM (inactive) and the GI50 (SN12C) was > 100 µM (inactive). For the same molecule, the GI50 (SNB-19) was > 100 µM (inactive), the GI50 (SNB-75) was 18.7 µM (inactive) and the GI50 (SR) was 26.7 µM (inactive). The GI50 (SW-620) was 43 µM (inactive), the GI50 (T47D) was 38.7 µM (inactive) and the GI50 (TK-10) was > 100 µM (inactive). The GI50 (U-251) was 31.8 µM (inactive), the GI50 (UACC-257) was 31.4 µM (inactive) and the GI50 (UACC-62) was 28.6 µM (inactive). The GI50 (UO-31) was 26.1 µM (inactive).
In the case of `O=[N+]([O-])c1ccc2[nH]nc(OCc3ccccn3)c2c1`, the GI50 (786-0) is reported as > 100 µM (inactive), the GI50 (A498) is reported as > 100 µM (inactive) and the GI50 (A549) is reported as > 100 µM (inactive). For the same molecule, the GI50 (ACHN) was > 100 µM (inactive), the GI50 (CAKI-1) was > 100 µM (inactive) and the GI50 (CCRF-CEM) was > 100 µM (inactive). The GI50 (COLO 205) was > 100 µM (inactive), the GI50 (DU-145) was > 100 µM (inactive) and the GI50 (EKVX) was > 100 µM (inactive). For the same molecule, the GI50 (HCC 2998) was > 100 µM (inactive), the GI50 (HCT-116) was > 100 µM (inactive) and the GI50 (HCT-15) was over 100 µM. The GI50 (HL-60) was > 100 µM (inactive), the GI50 (HOP-62) was > 100 µM (inactive) and the GI50 (HOP-92) was 35.7 µM (inactive). The GI50 (HT-29) was > 100 µM (inactive), the GI50 (Hs-578T) was 35.2 µM (inactive) and the GI50 (IGROV-1) was > 100 µM (inactive). For the same molecule, the GI50 (K562) was > 100 µM (inactive), the GI50 (KM12) was > 100 µM (inactive) and the GI50 (LOX IMVI) was > 100 µM (inactive). The GI50 (M14) was > 100 µM (inactive), the GI50 (MDA-MB-231) was > 100 µM (inactive) and the GI50 (MDA-MB-435) was > 100 µM (inactive). For the same molecule, the GI50 (MDA-N) was > 100 µM (inactive), the GI50 (MOLT-4) was > 100 µM (inactive) and the GI50 (Malme-3M) was > 100 µM (inactive). The GI50 (NCI-H226) was > 100 µM (inactive), the GI50 (NCI-H23) was > 100 µM (inactive) and the GI50 (NCI-H460) was > 100 µM (inactive). For the same molecule, the GI50 (NCI-H522) was > 100 µM (inactive), the GI50 (NCI/ADR-RES) was > 100 µM (inactive) and the GI50 (OVCAR-3) was 61 µM (inactive). The GI50 (OVCAR-4) was > 100 µM (inactive), the GI50 (OVCAR-5) was > 100 µM (inactive) and the GI50 (OVCAR-8) was > 100 µM (inactive). The GI50 (PC-3) was > 100 µM (inactive), the GI50 (RPMI-8226) was > 100 µM (inactive) and the GI50 (RXF 393) was > 100 µM (inactive). The GI50 (SF-268) was > 100 µM (inactive), the GI50 (SF-295) was 38.8 µM (inactive) and the GI50 (SF-539) was > 100 µM (inactive). The GI50 (SK-MEL-28) was > 100 µM (inactive), the GI50 (SK-MEL-2) was 82.2 µM (inactive) and the GI50 (SK-MEL-5) was > 100 µM (inactive). For the same molecule, the GI50 (SK-OV-3) was 73.8 µM (inactive), the GI50 (SN12C) was > 100 µM (inactive) and the GI50 (SNB-19) was 50.5 µM (inactive). For the same molecule, the GI50 (SNB-75) was 31.5 µM (inactive), the GI50 (SR) was > 100 µM (inactive) and the GI50 (SW-620) was > 100 µM (inactive). For the same molecule, the GI50 (T47D) was 47 µM (inactive), the GI50 (TK-10) was 47.2 µM (inactive) and the GI50 (U-251) was 99.8 µM (inactive). The GI50 (UACC-257) was > 100 µM (inactive), the GI50 (UACC-62) was > 100 µM (inactive) and the GI50 (UO-31) was > 100 µM (inactive).
`Oc1cc(O)c2c(c1)O[C@H](c1ccc(O)c(O)c1)[C@@H](O)C2` [CIANIDANOL] was tested, and the GI50 (786-0) was > 100 µM (inactive), the GI50 (A549) was > 100 µM (inactive) and the GI50 (ACHN) was > 100 µM (inactive). The GI50 (CAKI-1) was > 100 µM (inactive), the GI50 (CCRF-CEM) was > 100 µM (inactive) and the GI50 (COLO 205) was > 100 µM (inactive). For the same molecule, the GI50 (DU-145) was > 100 µM (inactive), the GI50 (EKVX) was > 100 µM (inactive) and the GI50 (HCC 2998) was > 100 µM (inactive). The GI50 (HCT-116) was > 100 µM (inactive), the GI50 (HCT-15) was over 100 µM and the GI50 (HL-60) was > 100 µM (inactive). For the same molecule, the GI50 (HOP-62) was > 100 µM (inactive), the GI50 (HOP-92) was > 100 µM (inactive) and the GI50 (HT-29) was > 100 µM (inactive). The GI50 (Hs-578T) was > 100 µM (inactive), the GI50 (IGROV-1) was > 100 µM (inactive) and the GI50 (K562) was > 100 µM (inactive). The GI50 (KM12) was > 100 µM (inactive), the GI50 (LOX IMVI) was > 100 µM (inactive) and the GI50 (M14) was > 100 µM (inactive). For the same molecule, the GI50 (MCF7) was > 100 µM (inactive), the GI50 (MDA-MB-231) was > 100 µM (inactive) and the GI50 (MDA-MB-435) was > 100 µM (inactive). The GI50 (MDA-N) was > 100 µM (inactive), the GI50 (MOLT-4) was > 100 µM (inactive) and the GI50 (Malme-3M) was > 100 µM (inactive). The GI50 (NCI-H226) was > 100 µM (inactive), the GI50 (NCI-H23) was > 100 µM (inactive) and the GI50 (NCI-H460) was > 100 µM (inactive). The GI50 (NCI-H522) was > 100 µM (inactive), the GI50 (NCI/ADR-RES) was > 100 µM (inactive) and the GI50 (OVCAR-3) was > 100 µM (inactive). For the same molecule, the GI50 (OVCAR-4) was > 100 µM (inactive), the GI50 (OVCAR-5) was > 100 µM (inactive) and the GI50 (OVCAR-8) was > 100 µM (inactive). The GI50 (PC-3) was > 100 µM (inactive), the GI50 (RPMI-8226) was > 100 µM (inactive) and the GI50 (SF-268) was > 100 µM (inactive). The GI50 (SF-295) was > 100 µM (inactive), the GI50 (SF-539) was > 100 µM (inactive) and the GI50 (SK-MEL-28) was > 100 µM (inactive). The GI50 (SK-MEL-2) was > 100 µM (inactive), the GI50 (SK-MEL-5) was > 100 µM (inactive) and the GI50 (SN12C) was > 100 µM (inactive). The GI50 (SNB-19) was > 100 µM (inactive), the GI50 (SNB-75) was > 100 µM (inactive) and the GI50 (SR) was > 100 µM (inactive). The GI50 (SW-620) was > 100 µM (inactive), the GI50 (T47D) was > 100 µM (inactive) and the GI50 (TK-10) was > 100 µM (inactive). The GI50 (U-251) was > 100 µM (inactive), the GI50 (UACC-257) was > 100 µM (inactive) and the GI50 (UO-31) was > 100 µM (inactive).
